According to paper PMC10810011 (Expert opinion on drug delivery, 2023):
Where a name gives a salt, the structure may show the parent alone.

Experiments:
5-HT1B = 5-HT1B (Homo sapiens, UniProt P28222); assay: InVEST radioligand filter binding, 5-HT1B
5-HT3 = biological target: T1, 5-HT3 (Homo sapiens, UniProt P46098); assay: InVEST radioligand filter binding, ion channel 5-HT3; conditions: read-out: IC50 (M) of reference compound, tested in parallel
T1 sequence (P46098 24-478): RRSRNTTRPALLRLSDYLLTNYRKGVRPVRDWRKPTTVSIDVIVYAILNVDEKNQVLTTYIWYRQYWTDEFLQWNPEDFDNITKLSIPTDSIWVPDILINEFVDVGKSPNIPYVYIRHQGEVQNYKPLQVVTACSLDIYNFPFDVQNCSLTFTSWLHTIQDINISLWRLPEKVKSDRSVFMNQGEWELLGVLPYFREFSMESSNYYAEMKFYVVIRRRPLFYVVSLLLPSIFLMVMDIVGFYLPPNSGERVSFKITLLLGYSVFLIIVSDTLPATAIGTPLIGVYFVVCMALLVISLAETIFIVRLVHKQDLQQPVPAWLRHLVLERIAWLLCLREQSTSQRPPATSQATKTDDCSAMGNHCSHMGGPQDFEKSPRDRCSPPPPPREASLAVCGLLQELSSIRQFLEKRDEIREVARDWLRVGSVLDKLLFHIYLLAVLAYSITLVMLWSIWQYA

CCK = biological target: T2, CCK (Homo sapiens, UniProt P32238); assay: InVEST radioligand filter binding, CCK
T2 sequence (P32238 1-428): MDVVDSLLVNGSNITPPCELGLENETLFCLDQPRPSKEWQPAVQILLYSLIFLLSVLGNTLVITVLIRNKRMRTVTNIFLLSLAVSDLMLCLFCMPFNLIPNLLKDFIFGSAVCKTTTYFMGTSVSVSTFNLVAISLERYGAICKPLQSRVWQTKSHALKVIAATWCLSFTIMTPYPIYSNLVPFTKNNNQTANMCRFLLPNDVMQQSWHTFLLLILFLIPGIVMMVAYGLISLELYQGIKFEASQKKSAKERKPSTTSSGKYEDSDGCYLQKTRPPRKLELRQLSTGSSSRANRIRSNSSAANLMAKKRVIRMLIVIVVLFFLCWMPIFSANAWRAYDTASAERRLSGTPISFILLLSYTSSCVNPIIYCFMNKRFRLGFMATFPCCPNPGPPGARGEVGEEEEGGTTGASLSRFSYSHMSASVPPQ

Thrombin alpha = Thrombin alpha (Homo sapiens, UniProt P00734); assay: InVEST enzymatic activity, Thrombin alpha; format: biochemical; conditions: read-out: IC50 (M) of reference compound, tested in parallel
alpha2A adrenergic = biological target: T3, alpha2A adrenergic (Homo sapiens, UniProt P08913); assay: InVEST radioligand filter binding, alpha2A adrenergic; conditions: read-out: IC50 (M) of reference compound, tested in parallel
T3 sequence (P08913 1-465): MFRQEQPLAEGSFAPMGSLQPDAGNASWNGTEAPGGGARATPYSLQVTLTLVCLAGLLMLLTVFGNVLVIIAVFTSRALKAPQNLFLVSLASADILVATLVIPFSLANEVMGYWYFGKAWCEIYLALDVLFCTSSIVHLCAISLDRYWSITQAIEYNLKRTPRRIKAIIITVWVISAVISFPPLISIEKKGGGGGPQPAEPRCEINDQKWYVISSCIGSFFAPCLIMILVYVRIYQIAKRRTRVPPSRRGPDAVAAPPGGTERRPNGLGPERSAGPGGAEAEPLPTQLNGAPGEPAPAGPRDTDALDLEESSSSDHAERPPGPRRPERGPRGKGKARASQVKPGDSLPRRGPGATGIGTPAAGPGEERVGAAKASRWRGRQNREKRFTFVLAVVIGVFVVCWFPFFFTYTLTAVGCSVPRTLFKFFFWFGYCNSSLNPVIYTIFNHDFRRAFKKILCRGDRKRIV

AHR-activation = biological target: T4, AHR-activation (Homo sapiens, UniProt P35869)
T4 sequence (P35869 11-848): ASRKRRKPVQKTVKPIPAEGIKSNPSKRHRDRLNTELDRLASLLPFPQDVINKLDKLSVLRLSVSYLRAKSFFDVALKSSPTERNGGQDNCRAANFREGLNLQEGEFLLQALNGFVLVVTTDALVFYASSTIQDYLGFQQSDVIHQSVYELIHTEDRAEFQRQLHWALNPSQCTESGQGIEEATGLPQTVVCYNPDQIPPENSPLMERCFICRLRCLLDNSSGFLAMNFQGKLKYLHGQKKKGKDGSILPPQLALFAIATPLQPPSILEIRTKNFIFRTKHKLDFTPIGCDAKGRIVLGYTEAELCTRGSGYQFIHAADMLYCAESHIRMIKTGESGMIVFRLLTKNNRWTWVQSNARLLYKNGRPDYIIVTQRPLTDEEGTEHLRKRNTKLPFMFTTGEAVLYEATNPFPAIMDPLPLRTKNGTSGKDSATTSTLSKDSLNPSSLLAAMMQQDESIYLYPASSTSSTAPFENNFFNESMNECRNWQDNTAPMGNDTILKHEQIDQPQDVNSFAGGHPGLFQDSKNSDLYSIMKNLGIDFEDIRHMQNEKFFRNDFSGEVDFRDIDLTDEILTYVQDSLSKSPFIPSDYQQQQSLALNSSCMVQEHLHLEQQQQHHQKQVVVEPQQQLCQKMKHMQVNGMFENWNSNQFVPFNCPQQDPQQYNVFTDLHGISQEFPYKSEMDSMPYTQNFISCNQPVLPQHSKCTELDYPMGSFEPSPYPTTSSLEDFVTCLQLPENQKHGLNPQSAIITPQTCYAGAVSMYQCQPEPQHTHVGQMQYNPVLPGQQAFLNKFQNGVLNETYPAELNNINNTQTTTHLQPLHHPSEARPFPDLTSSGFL

Muscarinic M2 = biological target: T5, Muscarinic M2 (Homo sapiens, UniProt P08172); assay: InVEST radioligand filter binding, Muscarinic M2; conditions: read-out: IC50 (M) of reference compound, tested in parallel
T5 sequence (P08172 1-466): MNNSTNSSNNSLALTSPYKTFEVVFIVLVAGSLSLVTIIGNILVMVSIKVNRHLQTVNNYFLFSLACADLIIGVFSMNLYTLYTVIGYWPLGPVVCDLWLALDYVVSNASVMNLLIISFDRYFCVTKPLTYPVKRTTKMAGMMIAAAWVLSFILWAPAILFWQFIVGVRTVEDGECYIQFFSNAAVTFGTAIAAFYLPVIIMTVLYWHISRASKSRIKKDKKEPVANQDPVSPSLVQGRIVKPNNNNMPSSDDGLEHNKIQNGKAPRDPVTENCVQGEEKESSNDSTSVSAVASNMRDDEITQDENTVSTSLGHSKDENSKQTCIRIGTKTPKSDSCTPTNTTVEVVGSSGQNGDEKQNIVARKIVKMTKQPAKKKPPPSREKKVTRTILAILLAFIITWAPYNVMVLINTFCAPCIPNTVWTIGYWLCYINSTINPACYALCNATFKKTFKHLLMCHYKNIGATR

AHR-inhibition = biological target: T6, AHR-inhibition (Homo sapiens, UniProt P35869); assay: InVEST fluorescence polarization binding/cell-based activity, AHR-inhibition; conditions: read-out: IC50 (M) of reference compound, + 10 nM FICZ, tested in parallel
T6 sequence (P35869 11-848): T4 sequence (P35869 11-848)

PDE3A = PDE3A (Homo sapiens, UniProt Q14432); assay: InVEST enzymatic activity, PDE3A; format: biochemical; conditions: read-out: IC50 (M) of reference compound, tested in parallel
PDE3A, sequence (Q14432 whole entry): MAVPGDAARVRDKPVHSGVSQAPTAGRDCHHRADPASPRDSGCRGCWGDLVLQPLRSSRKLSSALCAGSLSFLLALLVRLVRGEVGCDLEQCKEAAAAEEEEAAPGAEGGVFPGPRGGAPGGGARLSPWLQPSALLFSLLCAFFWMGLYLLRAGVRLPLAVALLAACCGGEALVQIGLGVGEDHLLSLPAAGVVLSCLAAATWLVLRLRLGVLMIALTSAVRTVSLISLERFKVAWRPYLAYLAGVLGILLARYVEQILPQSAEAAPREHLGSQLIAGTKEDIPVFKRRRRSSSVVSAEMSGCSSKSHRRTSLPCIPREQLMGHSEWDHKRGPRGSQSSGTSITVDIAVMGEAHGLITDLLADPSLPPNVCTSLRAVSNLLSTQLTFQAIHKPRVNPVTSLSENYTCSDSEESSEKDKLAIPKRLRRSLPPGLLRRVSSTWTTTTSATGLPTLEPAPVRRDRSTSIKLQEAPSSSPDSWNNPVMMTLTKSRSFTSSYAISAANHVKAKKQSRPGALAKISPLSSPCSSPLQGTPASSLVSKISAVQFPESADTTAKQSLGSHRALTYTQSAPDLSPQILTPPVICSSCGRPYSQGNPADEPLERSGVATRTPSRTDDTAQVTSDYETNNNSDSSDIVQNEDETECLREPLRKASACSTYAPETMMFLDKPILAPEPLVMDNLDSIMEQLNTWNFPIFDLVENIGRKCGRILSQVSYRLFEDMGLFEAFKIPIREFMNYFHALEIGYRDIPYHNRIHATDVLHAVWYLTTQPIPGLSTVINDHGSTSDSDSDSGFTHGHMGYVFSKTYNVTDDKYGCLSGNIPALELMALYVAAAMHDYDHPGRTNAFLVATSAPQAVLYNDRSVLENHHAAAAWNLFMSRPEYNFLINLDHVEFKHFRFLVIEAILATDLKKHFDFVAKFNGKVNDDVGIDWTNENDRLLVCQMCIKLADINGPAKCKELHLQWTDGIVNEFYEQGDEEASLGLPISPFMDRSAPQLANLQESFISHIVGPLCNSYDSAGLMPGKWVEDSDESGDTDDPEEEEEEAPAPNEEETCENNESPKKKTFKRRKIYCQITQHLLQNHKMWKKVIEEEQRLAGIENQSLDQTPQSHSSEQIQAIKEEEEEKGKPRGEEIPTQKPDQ

PDE4A = PDE4A (Homo sapiens, UniProt P27815); assay: InVEST enzymatic activity, PDE4A; format: biochemical; conditions: read-out: IC50 (M) of reference compound, tested in parallel
PDE4A, sequence (P27815 whole entry): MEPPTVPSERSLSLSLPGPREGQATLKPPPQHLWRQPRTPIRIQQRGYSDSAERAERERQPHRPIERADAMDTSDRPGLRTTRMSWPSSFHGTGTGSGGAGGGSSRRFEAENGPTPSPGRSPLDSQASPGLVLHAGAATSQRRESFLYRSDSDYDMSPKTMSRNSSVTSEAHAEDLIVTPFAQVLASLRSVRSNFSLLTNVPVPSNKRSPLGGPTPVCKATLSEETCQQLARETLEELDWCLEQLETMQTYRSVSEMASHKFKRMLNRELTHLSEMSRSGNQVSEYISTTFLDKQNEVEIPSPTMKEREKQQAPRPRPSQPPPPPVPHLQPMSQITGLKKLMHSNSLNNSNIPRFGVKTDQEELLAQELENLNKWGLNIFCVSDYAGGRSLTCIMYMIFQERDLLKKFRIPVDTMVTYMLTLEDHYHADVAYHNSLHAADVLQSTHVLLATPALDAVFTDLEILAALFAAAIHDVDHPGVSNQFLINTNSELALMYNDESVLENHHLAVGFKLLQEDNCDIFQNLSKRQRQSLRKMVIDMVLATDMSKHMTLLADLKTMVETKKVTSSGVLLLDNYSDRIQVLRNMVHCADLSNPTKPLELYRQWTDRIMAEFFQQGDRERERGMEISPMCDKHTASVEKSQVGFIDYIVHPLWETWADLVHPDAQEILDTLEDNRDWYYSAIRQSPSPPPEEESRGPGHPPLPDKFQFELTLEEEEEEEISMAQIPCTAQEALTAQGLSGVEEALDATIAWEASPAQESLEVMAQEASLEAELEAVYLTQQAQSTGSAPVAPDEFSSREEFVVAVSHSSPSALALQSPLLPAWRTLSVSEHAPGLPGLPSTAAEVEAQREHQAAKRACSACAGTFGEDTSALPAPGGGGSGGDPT

5-HT1B, sequence (P28222 whole entry): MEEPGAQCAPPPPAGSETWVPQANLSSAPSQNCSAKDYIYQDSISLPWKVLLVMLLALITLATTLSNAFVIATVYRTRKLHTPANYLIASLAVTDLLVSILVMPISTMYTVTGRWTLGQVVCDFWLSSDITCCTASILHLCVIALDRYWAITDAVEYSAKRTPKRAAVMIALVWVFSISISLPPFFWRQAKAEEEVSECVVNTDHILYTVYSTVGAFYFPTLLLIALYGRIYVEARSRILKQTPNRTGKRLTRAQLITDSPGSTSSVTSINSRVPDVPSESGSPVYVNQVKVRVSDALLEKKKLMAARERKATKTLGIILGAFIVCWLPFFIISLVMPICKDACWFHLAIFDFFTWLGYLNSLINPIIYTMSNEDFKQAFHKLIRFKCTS

COc1ccc(NC(=O)c2ccc(-c3ccncc3)c(C)c2)cc1N1CCN(C)CC1 [GR125743, reference compound]
IC50 (5-HT1B): 0.00485 µM

Cc1[nH]cnc1CCC(=O)c1cn(C)c2ccccc12 [GR 65630, reference compound]
IC50 (5-HT3): 1.09e-09 M

CCCCCN(CCCCC)C(=O)C(CCC(=O)O)NC(=O)c1ccc(Cl)c(Cl)c1 (stereo not shown) [lorglumide, reference compound]
IC50 (CCK): 0.00378 µM

CCOC(=O)c1ccc(OC(=O)CCCCCN=C(N)N)cc1 [gabexate mesylate, reference compound]
IC50 (Thrombin alpha): 2.26e-06 M

COC1(C2=NCCN2)COc2ccccc2O1 (stereo not shown) [RX 821002, reference compound]
IC50 (alpha2A adrenergic): 1.15e-08 M

O=Cc1c2[nH]c3ccccc3c2cc2[nH]c3ccccc3c12 [FICZ]
IC50 (AHR-activation): 0.0105 µM

CCCN(CCC)CC1CCCCN1CCNC(=O)N1c2ccccc2C(=O)Nc2cccnc21 (stereo not shown) [AF-DX 384, reference compound]
IC50 (Muscarinic M2): 1.79e-08 M

GNF-351 [reference compound]
IC50 (AHR-inhibition): 2.9e-07 M

CC(C)Cn1c(=O)n(C)c(=O)c2[nH]cnc21 [IBMX, reference compound]
IC50 (PDE3A): 2.21e-05 M | IC50 (PDE4A): 3e-05 M
